Reference: patent publication US10610535B2 (The Regents of the University of California, priority 2005, dated 2020)

Tests used:
[1] = test system: spinal cords of mice with EAE; test: Spinal cord histopathology and immunohistochemistry in EAE (Example 5); type: in vivo; conditions: acute phase of EAE
Text: Mice were deeply anesthetized with isoflurane and perfused transcardially with ice-cold 0.9% saline, followed by 10% formalin. Spinal cord columns were removed and postfixed overnight in 10% formalin and cryoprotected with 20% sucrose solution, in PBS. Spinal cords were removed from the column, cut in three parts (cervical, thoracic, and lumbar), and embedded in gelatin/sucrose mix. Spinal cord regions in gelatin were further postfixed and stored in 20% sucrose. Free-floating sections (25 μm thick) were cut coronally with a sliding microtome and collected serially in PBS. […]
To quantify immunostaining results, sections from spinal cord levels T1-T5 were examined, six from each mouse, with n=3 mice per treatment group, for a total of 18 sections per treatment group. […] All images were converted to grayscale and then analyzed by density measurement with ImageJ version 1.29 (the Windows version of NIH Image), downloaded from rsb.info.nih.gov/ij. A fixed threshold range of 0-160 was chosen to highlight the staining signals in normal spinal cord sections, and the total area within this range was measured, averaged, and compared.
Increase in total number of infiltrating cells after induction of EAE was measured by density measurements of DAPI+nuclei in the whole white matter. Neuronal cells were quantified by counting the NeuN+/β3-tubulin+/DAPI+ cells per square millimeter in the whole gray matter. […]

[2] = test system: PLP 139-151 stimulated splenocytes; test: Splenic immune responses (proliferation, cytokines) in SJL mice with EAE; type: in vivo; conditions: day 52 after disease induction, vs vehicle
Experimental: (§1) Spleens were harvested either after deep anesthesia prior to perfusion or after euthanasia. Splenocytes were stimulated with the indicated autoantigens at […], and proliferation assessed using standard H3 incorporation assays, as described. Supernatants were collected after 48 and 72 hours, and levels of TNF-i, IFN-γ, 11,6, and 1 L5 were determined by cytometric bead array (BD Biosciences), as described. EAE clinical disease severity was compared between treatment groups using the Friedman test; histopathological changes were assessed using 1×4 ANOVAs; uterine weights, proliferative responses and cytokine levels were compared between treatment groups using Student t-test, and time on rotorod was compared between treatment groups using ANOVA.

[3] = test system: C57BL/6 mice with EAE; test: Clinical severity of MOG 35-55 induced active EAE (Example 6); type: in vivo; conditions: vs vehicle
[4] = test system: C57BL/6 mice with EAE; test: Rotarod testing of motor performance during EAE; type: in vivo
Experimental: Motor behavior was tested up to two times per week for each mouse using a rotarod apparatus (Med Associates mc, St. Albans, Vt.). Briefly, animals were placed on a rotating horizontal cylinder for a maximum of 200 seconds. The amount of time the mouse remained walking on the cylinder, without falling, was recorded. Each mouse was tested on a speed of 3-30 rpm and given three trials for any given day. The three trials were averaged to report a single value for an individual mouse, and then averages were calculated for all animals within a given treatment group. The first two trial days, prior to immunization (day 0), served as practice trials.
EAE clinical disease severity was compared between treatment groups using the Friedman test; histopathological changes were assessed using 1×4 ANOVAs; uterine weights, proliferative responses and cytokine levels were compared between treatment groups using Student t-test, and time on rotorod was compared between treatment groups using ANOVA.

[5] = test system: spinal cords of mice with EAE; test: Spinal cord histopathology and immunohistochemistry in EAE (Example 6); type: in vivo
Text: Mice were deeply anesthetized with isoflurane and perfused transcardially with ice-cold 0.9% saline, followed by 10% formalin. Spinal cord columns were removed and post-fixed overnight in 10% formalin and cryoprotected with 20% sucrose solution in PBS. Spinal cords were removed from the column and cut in 3 parts (cervical, thoracic and lumbar) and embedded in gelatin/sucrose mix. Spinal cord regions in gelatin were further postfixed and stored in 20% sucrose. Free-floating sections (25 μm thick) were cut coronally with a sliding microtome and collected serially in PBS.
Serial sections were mounted on slides and stained with Hematoxylin & eosin (H&E) or Nissl. Consecutive sections were also examined by immunohistochemistry. Briefly, 25 μm free-floating sections were permeabilized in 0.3% Triton X-100 in PBS and blocked with 10% normal goat serum. White matter immunostaining was enhanced by treating sections with 95% ethanol/5% acetic acid for 15 minutes prior to permeabilization and blocking. To detect specific cell types and structures, sections were pre-incubated with primary antibodies in PBS solution containing 2% NGS for 2 hours at room temperature, then overnight at […]. The following primary antibodies were used: anti-133 tubulin and anti-neurofilament-NF200 (monoclonal, Chemicon; polyclonal Sigma Biochemical), anti-neuronal specific nuclear protein (NeuN), anti-CD4S (Chemicon), and anti-MW (Chemicon). The second antibody step was performed by labeling with antibodies conjugated to TRITC, FITC and Cy5 (Vector Labs and Chemicon). IgG-control experiments were performed for all primary antibodies, and no staining was observed under these conditions. To assess the number of cells, a nuclear stain 4′,6-Diamidino-2-phenylindole, DAPI (2 ng/ml; Molecular Probes) was added for 15 minutes prior to final washes after secondary antibody addition. The sections were mounted on slides, dried and coverslipped in fluoromount G (Fisher Scientific).
To quantify immunostaining results, sections from spinal cord levels T1-T5 were examined, six from each mouse, with n=3 mice per treatment group, for a total of 18 sections per treatment group. Images were captured under microscope (4×, 10× or 40×) using the DP70 Image software and a DP70 camera (both from Olympus). Identical tight intensity and exposure times were applied to all photographs from each experimental set. Images from the same areas of spinal cord were compared (TI-IS) and were acquired separately from delineated whole gray and white mailer regions. The middle region of the ventral horn was the focus for gray matter analysis, while the area lateral to the ventral horn was the focus for white matter analysis. Six gray matter and six white matter pictures were collected from the two sides of TI-IS sections (100 jim apart) from three animals in each treatment group. All images were converted to grayscale and then analyzed by density measurement with ImageJ vi 0.29 (the Windows version of NIH Image), downloaded from rsb.info.nih.gov/ij. A fixed threshold range of 0 to 160 was chosen to highlight the staining signals in normal spinal cord sections, and the total area within this range was measured, averaged, and compared.
Increase in total number of infiltrating cells after induction of EAE was measured by density measurements of DAPI nuclei in the whole white matter. Neuronal cells were quantified by counting the NeuN^+/β3-tubulin^+/DAPI^+ cells per mm2 in the whole gray matter. Both white and gray matter assessments occurred in the TI-IS spinal cord sections. Laser scanning confocal microscopic scans at 40× were performed on Mac 3^+/β3-tubulin^+ immunostained spinal cord sections corresponding to levels 11-15 ventral horn. […]

[6] = test system: MOG 35-55 stimulated splenocytes; test: Autoantigen specific cytokine production by splenocytes in C57BL/6 EAE (Example 6); type: in vivo, mice; conditions: vs vehicle
Experimental: as §1

[7] = test system: SJL mice with EAE; test: PLP 139-151 induced active EAE in SJL mice, relapses; type: in vivo
[8] = test system: uterus (positive control tissue) of ovariectomized C57BL/6 mice; test: Uterine weights to assess dosing (Example 6); type: in vivo
Experimental: Uterine weight was used as a positive control to assess dosing of estrogen agonists. Daily subcutaneous injections of vehicle, estradiol, PPT, or DPN, as well as a combination of ITT with DPN, were administered for ten days at indicated doses to ovariectomized mice. Following euthanasia, the uterus was extracted, then fat, connective tissue, and excess fluid removed in order to obtain the uterine weight, as described. EAE clinical disease severity was compared between treatment groups using the Friedman test; histopathological changes were assessed using 1×4 ANOVAs; uterine weights, proliferative responses and cytokine levels were compared between treatment groups using Student t-test, and time on rotorod was compared between treatment groups using ANOVA.

[9] = test system: post-partum patient with relapsing remitting multiple sclerosis; test: Case of post-partum relapsing remitting MS patient; type: in vivo, human
Experimental: A patient was diagnosed as having relapsing remitting multiple sclerosis. Following the delivery of their first child (now […]), the patient was treated only with Copaxone and relapsed at 6 weeks. Following the delivery of their second child (now […]), the patient was again treated with Copaxone alone and again relapsed, this time at 4.5 months. Following a subsequent pregnancy, the patient was treated with 8 mg estriol/day in an attempt to prevent their post partum relapses.
Following the birth of the patient's third child (now 6 months), the patient resumed treatment with Copaxone as before. However, on day 10 post-partum they began taking estriol 8 mg/daily in an oral dosage form. […] Since monthly brain MRIs with gadolinium to detect enhancing MS lesions are more sensitive for inflammatory disease activity than relapses, the patient underwent serial monthly MRIs at post partum months 4, 5, and 6.
The patient doubled the progesterone minipill for 2 weeks to stabilize the endometrium. Otherwise no adverse events have been reported.

[10] = day 19 and day 40, vs normal mice
[11] = early (day 19) and later (day 40) stages of EAE

C[C@]12CC[C@@H]3c4ccc(O)cc4CC[C@H]3[C@@H]1CC[C@@H]2O [estradiol, 17β-estradiol]
Decrease of Mac 3+ cells in gray matter compared with vehicle-treated EAE mice [1]: ~65%

N#CC(Cc1ccc(O)cc1)c1ccc(O)cc1 (centres unmarked) [DPN, Diarylpropionitrile]
Cytokine (TNFα, IFNγ) production during the PLP 139-151 specific response [2]: No significant differences
Proliferation during the PLP 139-151 specific response [2]: No significant differences
Clinical scores (EAE 0-5 scale) ([3]; DPN 8 mg/kg/day s.c., ovariectomized C57BL/6, early in disease (up to day 20 after induction)): not significantly different
Clinical scores (EAE 0-5 scale) ([3]; DPN 8 mg/kg/day s.c., ovariectomized C57BL/6, later during EAE (following day 30 after induction)): significantly improved
Clinical scores (EAE 0-5 scale) ([3]; DPN, ovariectomized ERβ KO C57BL/6 mice): no different
Mean time on rotarod (motor function) ([4]; ERβ KO mice with EAE, later phase of disease): no improvement was observed
Mean time on rotarod (motor function) ([4]; ovariectomized wild type C57BL/6 with EAE, after day 30): significant recovery of motor function
White matter cell density, myelin density, axonal numbers and NeuN+ cells ([5]; ERβ knock out mice with EAE, day 38-40): does not prevent white and gray matter pathology
MBP immunoreactivity in dorsal column (myelin density) [5, 10]: no significant decreases
Neurofilament stained axon numbers in white matter [5, 10]: no significant reduction in axon numbers
NeuN+ cell numbers in gray matter ([5]; early (day 19) and later (day 40) time points, vs healthy controls): fewer, but not significantly different from those in healthy controls
CD45 staining in white matter ([5]; early and later time points, vs vehicle treated EAE): did not have reduced CD45 staining
Inflammation, white matter cell density (DAPI+ cells) of thoracic cord ([5]; early stage of EAE (day 19), vs vehicle treated EAE): not significantly different from those in vehicle treated
Inflammation, white matter cell density (DAPI+ cells) of thoracic cord ([5]; later time point (day 40), vs vehicle): no different from that in vehicle treated
Anti-inflammatory cytokine IL5 [6, 11]: not statistically different from vehicle treatment
Levels of proinflammatory cytokines (TNFα, IFNγ, and IL6) [6, 11]: not statistically different from vehicle treatment
IL10 production [6]: No differences
Relapses (mice with relapse / mice) ([7]; DPN treated SJL mice, relapses between days 36 and 52, vehicle 10/13): 5/13
Relapses (percent of mice) ([7]; DPN treated SJL mice, relapses between days 36 and 52, vehicle 77%): 33%
Incidence, day of onset, peak clinical scores ([7]; DPN vs vehicle, SJL mice): no difference
PPT 3.3 mg/kg/day mediated increase in uterine weight ([8]; DPN 8 mg/kg/day in combination with PPT, 10 days): antagonized
Uterine weight ([8]; DPN alone 8 mg/kg/day s.c. for 10 days, ovariectomized C57BL/6): no effect on uterine weight

CCCc1c(-c2ccc(O)cc2)nn(-c2ccc(O)cc2)c1-c1ccc(O)cc1 [PPT, propyl pyrazole triol]
Decrease of Mac 3+ cells in gray matter compared with vehicle-treated EAE mice [1]: ~65%

glatiramer acetate copolymer-1 [Copaxone]
Time to post-partum relapse ([9]; Copaxone alone, after delivery of second child): 4.5 months
Time to post-partum relapse ([9]; Copaxone only, after delivery of first child): 6 weeks
